The source made the active and inactive calls.
What was measured:
Cytochrome P450 2C19 = Cytochrome P450 2C19 (Homo sapiens, UniProt P33261); experiment: qHTS Assay for Inhibitors and Substrates of Cytochrome P450 2C19. [Related pubchem assays: 410 ]; type: ADME; conditions: read-out: Potency
Cytochrome P450 2C9 = Cytochrome P450 2C9 (Homo sapiens, UniProt P11712); conditions: Potency
[1] = molecular target: E3 ubiquitin-protein ligase Mdm2 (Homo sapiens, UniProt Q00987); experiment: enhancers of MDM2-luciferase reporter signal, concentration-effect titration, project on inhibitors of MDM2 ubiquitin ligase, cellular assay, luminescent readout, 384-well plate format (AID 1394); type: functional;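 also: MDM2 E3 inhibitors raise luminescence so EC50 is for signal enhancement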
E3 ubiquitin-protein ligase Mdm2, sequence (Q00987 whole entry): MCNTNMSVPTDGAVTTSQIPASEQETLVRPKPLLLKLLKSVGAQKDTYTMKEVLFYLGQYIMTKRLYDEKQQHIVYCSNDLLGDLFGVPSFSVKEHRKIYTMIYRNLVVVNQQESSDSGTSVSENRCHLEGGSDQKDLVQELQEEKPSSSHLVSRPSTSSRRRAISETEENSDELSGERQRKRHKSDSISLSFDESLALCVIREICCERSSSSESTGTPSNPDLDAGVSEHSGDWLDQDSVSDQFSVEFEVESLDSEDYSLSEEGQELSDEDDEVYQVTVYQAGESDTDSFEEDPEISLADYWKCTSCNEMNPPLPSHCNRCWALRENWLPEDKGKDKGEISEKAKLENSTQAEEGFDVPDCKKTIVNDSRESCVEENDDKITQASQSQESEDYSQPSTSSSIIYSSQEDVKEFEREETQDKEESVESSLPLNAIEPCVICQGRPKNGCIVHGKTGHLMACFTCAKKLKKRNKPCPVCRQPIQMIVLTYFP

Estrogen receptor beta [2] = molecular target: T1, Estrogen receptor beta (Homo sapiens, UniProt Q92731); experiment: ERβ–SRC-3 coactivator interaction inhibitors, confirmation, orthogonal assay, biochemical, ELISA, streptavidin-HRP readout (AID 1060)
T1 sequence (Q92731 whole entry): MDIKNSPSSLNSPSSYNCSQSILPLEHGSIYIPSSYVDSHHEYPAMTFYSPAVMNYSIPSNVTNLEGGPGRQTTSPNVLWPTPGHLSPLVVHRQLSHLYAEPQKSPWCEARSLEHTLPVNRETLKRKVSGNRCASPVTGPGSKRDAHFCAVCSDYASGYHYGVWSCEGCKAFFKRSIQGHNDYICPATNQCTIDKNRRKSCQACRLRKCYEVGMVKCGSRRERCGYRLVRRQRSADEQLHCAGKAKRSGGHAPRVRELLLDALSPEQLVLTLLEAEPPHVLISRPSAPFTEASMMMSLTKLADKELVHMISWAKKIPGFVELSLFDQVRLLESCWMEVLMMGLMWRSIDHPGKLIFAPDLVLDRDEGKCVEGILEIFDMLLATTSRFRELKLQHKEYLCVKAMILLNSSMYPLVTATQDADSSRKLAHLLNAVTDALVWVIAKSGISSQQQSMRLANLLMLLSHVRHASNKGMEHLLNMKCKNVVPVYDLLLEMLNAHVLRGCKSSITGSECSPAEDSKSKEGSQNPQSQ

Estrogen receptor beta [3] = molecular target: T1, Estrogen receptor beta
[4] = molecular target: DNA dC->dU-editing enzyme APOBEC-3A (Homo sapiens, UniProt P31941); experiment: Dose Response confirmation of small molecule APOBEC3A DNA Deaminase Inhibitors via a fluorescence-based single-stranded DNA deaminase assay. [Related pubchem assays (depositor defined):AID493011, AID493024]; type: functional
DNA dC->dU-editing enzyme APOBEC-3A, sequence (P31941 whole entry): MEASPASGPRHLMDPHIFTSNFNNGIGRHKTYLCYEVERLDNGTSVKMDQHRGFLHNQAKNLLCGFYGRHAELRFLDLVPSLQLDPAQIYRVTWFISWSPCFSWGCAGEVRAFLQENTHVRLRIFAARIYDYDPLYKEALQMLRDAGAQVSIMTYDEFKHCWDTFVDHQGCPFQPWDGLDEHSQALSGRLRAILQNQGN

[5] = molecular target: DNA dC->dU-editing enzyme APOBEC-3G (Homo sapiens, UniProt Q9HC16); type: functional;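 also: Dose-response counterscreen measuring inhibition of APOBEC3G DNA deaminase activity, run while confirming APOBEC3A inhibitors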
DNA dC->dU-editing enzyme APOBEC-3G, sequence (Q9HC16 whole entry): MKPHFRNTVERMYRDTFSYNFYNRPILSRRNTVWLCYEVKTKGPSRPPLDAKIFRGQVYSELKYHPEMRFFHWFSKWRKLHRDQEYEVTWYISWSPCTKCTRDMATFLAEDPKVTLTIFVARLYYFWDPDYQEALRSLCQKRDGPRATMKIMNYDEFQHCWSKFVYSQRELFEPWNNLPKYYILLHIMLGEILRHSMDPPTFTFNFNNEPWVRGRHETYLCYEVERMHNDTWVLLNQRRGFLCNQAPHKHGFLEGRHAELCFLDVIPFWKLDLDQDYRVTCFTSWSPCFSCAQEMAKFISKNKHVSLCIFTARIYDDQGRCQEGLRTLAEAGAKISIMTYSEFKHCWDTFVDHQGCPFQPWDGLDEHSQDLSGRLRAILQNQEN

[6] = molecular target: Heat shock protein HSP 90-alpha (Homo sapiens, UniProt P07900); experiment: Luminescence-based dose response biochemical high throughput screening assay for inhibitors of the Heat Shock Protein 90 (HSP90). [Related pubchem assays: 1831 (Summary AID.), 1846 (Confirmation screen.), 1789 (Primary screen.)]
[7] = test system: Streptococcus sp. 'group A'; experiment: growth inhibition of control SK(-) GAS strain, dose response, counter-screen for streptokinase expression inhibitor project, luminescence, kanamycin, BacTiterGlo, confirmation (AID 1900); type: functional, organism-based
Streptokinase A = molecular target: T2, Streptokinase A (Streptococcus pyogenes serotype M1, UniProt P10520); experiment: S. pyogenes streptokinase expression inhibitors, potency, dose response, plasminogen activation absorbance, OD405 (AID 1914); type: functional, Streptococcus pyogenes M1 GAS;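 also: secreted streptokinase activity via plasminogen activation per viability signal from cell pellet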
T2 sequence (P10520 whole entry): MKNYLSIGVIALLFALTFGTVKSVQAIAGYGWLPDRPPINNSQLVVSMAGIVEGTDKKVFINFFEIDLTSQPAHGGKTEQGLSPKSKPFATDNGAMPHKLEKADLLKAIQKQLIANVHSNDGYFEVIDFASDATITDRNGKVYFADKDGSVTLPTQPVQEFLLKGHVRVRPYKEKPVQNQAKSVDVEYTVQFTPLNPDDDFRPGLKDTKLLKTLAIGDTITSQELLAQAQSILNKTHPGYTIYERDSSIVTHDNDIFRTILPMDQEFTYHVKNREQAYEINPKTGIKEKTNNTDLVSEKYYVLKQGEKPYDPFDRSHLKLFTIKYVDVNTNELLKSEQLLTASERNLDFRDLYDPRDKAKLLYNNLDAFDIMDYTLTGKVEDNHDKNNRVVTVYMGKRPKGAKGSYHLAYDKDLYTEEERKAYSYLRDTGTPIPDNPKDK

Streptococcus = experiment: Group A Streptococcus viability loss, dose response, counter-screen for streptokinase expression inhibitor project, luminescence, BacTiterGlo (AID 1915); type: functional, organism-based;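 also: potency for reduction of bacterial viability or growth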
[8] = molecular target: Voltage-gated inwardly rectifying potassium channel KCNH2 (Homo sapiens, UniProt Q12809); experiment: hERG protection from proarrhythmic block, potency, dose response, cell-based, thallium flux (AID 2121); type: ADME
Voltage-gated inwardly rectifying potassium channel KCNH2, sequence (Q12809 whole entry): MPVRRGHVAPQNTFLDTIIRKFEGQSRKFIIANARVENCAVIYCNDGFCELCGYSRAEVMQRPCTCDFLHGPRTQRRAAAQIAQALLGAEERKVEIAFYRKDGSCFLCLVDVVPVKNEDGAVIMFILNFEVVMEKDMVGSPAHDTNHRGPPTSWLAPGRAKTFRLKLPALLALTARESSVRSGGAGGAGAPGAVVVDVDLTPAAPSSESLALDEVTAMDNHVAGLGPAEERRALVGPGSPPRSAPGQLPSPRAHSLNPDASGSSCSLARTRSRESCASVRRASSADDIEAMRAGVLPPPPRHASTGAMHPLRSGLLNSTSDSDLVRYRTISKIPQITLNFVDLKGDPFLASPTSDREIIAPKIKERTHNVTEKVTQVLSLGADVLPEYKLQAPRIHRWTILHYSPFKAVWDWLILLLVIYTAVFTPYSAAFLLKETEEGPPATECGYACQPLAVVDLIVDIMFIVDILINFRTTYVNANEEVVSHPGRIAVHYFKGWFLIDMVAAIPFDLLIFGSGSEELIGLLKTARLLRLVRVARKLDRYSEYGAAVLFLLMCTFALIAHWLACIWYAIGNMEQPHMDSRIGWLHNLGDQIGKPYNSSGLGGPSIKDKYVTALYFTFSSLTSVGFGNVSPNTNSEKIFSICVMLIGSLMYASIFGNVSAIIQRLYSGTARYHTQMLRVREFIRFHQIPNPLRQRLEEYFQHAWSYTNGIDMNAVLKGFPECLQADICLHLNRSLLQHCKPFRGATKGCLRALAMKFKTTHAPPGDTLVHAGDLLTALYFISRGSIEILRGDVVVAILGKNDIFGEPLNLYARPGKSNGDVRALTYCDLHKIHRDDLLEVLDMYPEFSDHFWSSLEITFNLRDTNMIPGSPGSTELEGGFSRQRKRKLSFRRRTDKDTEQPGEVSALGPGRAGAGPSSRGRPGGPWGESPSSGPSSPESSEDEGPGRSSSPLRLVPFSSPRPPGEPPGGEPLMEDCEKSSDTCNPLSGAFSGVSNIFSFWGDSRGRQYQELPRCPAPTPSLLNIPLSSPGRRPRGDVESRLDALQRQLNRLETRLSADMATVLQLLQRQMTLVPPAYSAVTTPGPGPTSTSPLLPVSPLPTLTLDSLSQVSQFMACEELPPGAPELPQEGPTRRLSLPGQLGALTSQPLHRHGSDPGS

[9] = NIH-3T3 fibroblast cytotoxicity, dose response, cytotoxicity control, cell-based, fluorescence, Alamar Blue, secondary assay (AID 2327); type: functional;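 also: NIH-3T3 mouse fibroblasts cultured with fluconazole at 8 µg/mL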
[10] = C. albicans growth with fluconazole, confirmation, fluorescence, retest (AID 2467); type: functional, cell-based

Cytochrome P450 2C9, sequence (P11712 whole entry): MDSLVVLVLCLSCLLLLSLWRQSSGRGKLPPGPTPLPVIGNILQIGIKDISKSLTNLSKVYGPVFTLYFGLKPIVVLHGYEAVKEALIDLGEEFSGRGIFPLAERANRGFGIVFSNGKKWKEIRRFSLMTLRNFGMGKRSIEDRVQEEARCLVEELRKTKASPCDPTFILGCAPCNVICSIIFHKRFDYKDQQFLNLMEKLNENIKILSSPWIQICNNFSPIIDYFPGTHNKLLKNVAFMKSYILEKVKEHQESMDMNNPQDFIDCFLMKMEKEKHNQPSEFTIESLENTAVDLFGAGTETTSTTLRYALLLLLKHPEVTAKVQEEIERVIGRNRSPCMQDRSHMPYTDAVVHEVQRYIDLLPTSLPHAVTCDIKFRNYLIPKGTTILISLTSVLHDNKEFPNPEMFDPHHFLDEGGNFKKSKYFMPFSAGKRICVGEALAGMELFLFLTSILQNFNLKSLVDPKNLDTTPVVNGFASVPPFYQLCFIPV
Cytochrome P450 2C19, sequence (P33261 whole entry): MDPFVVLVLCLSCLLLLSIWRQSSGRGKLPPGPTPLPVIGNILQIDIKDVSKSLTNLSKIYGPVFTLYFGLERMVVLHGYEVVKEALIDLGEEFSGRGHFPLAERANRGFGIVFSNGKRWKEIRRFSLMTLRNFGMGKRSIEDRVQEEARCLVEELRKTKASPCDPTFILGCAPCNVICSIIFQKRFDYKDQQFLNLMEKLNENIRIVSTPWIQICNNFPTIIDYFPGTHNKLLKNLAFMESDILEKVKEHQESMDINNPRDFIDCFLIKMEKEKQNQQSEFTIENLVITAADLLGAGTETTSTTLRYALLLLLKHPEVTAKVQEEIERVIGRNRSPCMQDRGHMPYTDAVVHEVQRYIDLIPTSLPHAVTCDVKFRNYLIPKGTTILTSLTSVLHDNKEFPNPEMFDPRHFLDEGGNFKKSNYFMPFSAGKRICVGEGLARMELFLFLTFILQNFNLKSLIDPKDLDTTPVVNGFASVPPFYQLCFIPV

CC(=O)[C@H]1[C@H]2[C@H](C(=O)[C@@H]3OC[C@H]2O3)[C@@H]2c3ccccc3C=CN12
AC50 (Cytochrome P450 2C19): 31.6 µM (inconclusive) | AC50 (Cytochrome P450 2C9): 31.6 µM (inconclusive)

Cc1ccc(NC(=O)CCC2CC(C)(C)OC2=O)cc1 (centres undefined)
EC50 [1]: 777 µM (not active)

O=C(Cc1cccs1)Nc1nnc(Cc2ccccc2)s1
IC50 (Estrogen receptor beta [2]): 14.4 µM (not active) | IC50 (Estrogen receptor beta [3]): 1.7 µM (active) | IC50 [4]: 12 µM (active) | IC50 [5]: 25.3 µM (active)

CCOC(=O)c1csc(NC(=O)c2ccc3c(c2)OCCO3)n1
IC50 [6]: 1.23 µM (active) | EC50 [7]: > 150 µM (not active) | EC50 (Streptokinase A): > 150 µM (not active) | EC50 (Streptococcus): > 150 µM (not active)

O=C(Nc1nc(=O)c2ccccc2s1)c1ccc(Cl)cc1
EC50 [8]: 0.84 µM (active) | EC50 [9]: > 150 µM (inactive) | EC50 [10]: > 38 µM (not active)
